# Data reported in article PMC7179653 (Antimicrobial Agents and Chemotherapy, 2020).
# Like-named read-outs stand apart in the source and are kept apart here.
# Experiment: SAD study: single-dose nacubactam pharmacokinetics (plasma/urine, LC-MS/MS, noncompartmental)
# Assay type: in vivo
# Settings: human, iv; for AUC(0-inf) / AUC(0-t) / Cmax / Tmax / k el / clearance / Vd / half-life: plasma
# Procedure: Study treatments were administered as 30-min (SAD study) or 90-min (MAD study) i.v. infusions, the latter to investigate the pharmacokinetics using a longer infusion time, which is commonly used to increase the time above the MIC of β-lactams ([15]). The choice of a 90-min infusion time for the MAD study was dictated by the stability and toxicology data available at the time the study was being designed. […] Safety assessments included monitoring of AEs, laboratory safety tests (hematology, serum chemistry, and urinalysis), 12-lead ECG (discrete recordings and 24-h Holter recording), and vital signs (blood pressure, pulse rate, and body temperature). In the SAD study, safety assessments were performed predose at screening, at day 1, postdose periodically on days 1, 2, and 7 (follow-up), and at early withdrawal, if relevant. […] In the MAD study, safety assessments were done predose at screening, at day 2, postdose periodically on days 1, 2, 4, 7, and 8, on days 13 to 15 (follow-up), and at early withdrawal, if relevant. […] On all other days, a single predose sample was collected for pharmacokinetic evaluation prior to the morning infusion. Blood was collected into lithium-heparin tubes and stored at a nominal –80°C temperature until analysis.
# [1] = 1000 mg, single i.v. dose 1,000 mg, n = 6, mean (SD)
# [2] = 2000 mg, single i.v. dose 2,000 mg, n = 6, mean (SD)
# [3] = single i.v. dose 50 mg, n = 6, mean (SD)
# [4] = single i.v. dose 150 mg, n = 6, mean (SD)
# [5] = single i.v. dose 500 mg, n = 6, mean (SD)
structure (smiles),measurement,setting,value
NCCONC(=O)[C@@H]1CC[C@@H]2CN1C(=O)N2OS(=O)(=O)O [Nacubactam],CL renal,"plasma and urine, single i.v. doses, 6.86 ± 0.64 to 9.66 ± 1.66, read-out: mean CLR (renal clearance), range over the five dose levels",114 to 161 mL/min
same,AUC(0-inf),[1],143 µg·h/mL
same,AUC(0-t),[1],142 µg·h/mL
same,Cmax,[1],72 µg/mL
same,Tmax,[1],0.5 h
same,k el,[1],9.72e-05 s⁻¹
same,clearance,"1000 mg, single i.v. dose 1,000 mg, n = 6, mean (SD), read-out: CL (converted)",117 mL/min
same,Vd,"1000 mg, single i.v. dose 1,000 mg, n = 6, mean (SD), read-out: Vss",17 L
same,half-life,"1000 mg, single i.v. dose 1,000 mg, n = 6, mean (SD), read-out: t1/2 (converted)",2.05 h
same,AUC(0-inf),[2],229 µg·h/mL
same,AUC(0-t),[2],229 µg·h/mL
same,Cmax,[2],112 µg/mL
same,Tmax,[2],0.5 h
same,k el,[2],8.61e-05 s⁻¹
same,clearance,"2000 mg, single i.v. dose 2,000 mg, n = 6, mean (SD), read-out: CL (converted)",146 mL/min
same,Vd,"2000 mg, single i.v. dose 2,000 mg, n = 6, mean (SD), read-out: Vss",20.6 L
same,half-life,"2000 mg, single i.v. dose 2,000 mg, n = 6, mean (SD), read-out: t1/2 (converted)",2.36 h
same,AUC(0-inf),[3],5.21 µg·h/mL
same,AUC(0-t),[3],5.08 µg·h/mL
same,Cmax,[3],2.69 µg/mL
same,Tmax,[3],0.54 h
same,k el,[3],0.000106 s⁻¹
same,clearance,"single i.v. dose 50 mg, n = 6, mean (SD), read-out: CL (converted)",164 mL/min
same,Vd,"single i.v. dose 50 mg, n = 6, mean (SD), read-out: Vss",22.4 L
same,half-life,"single i.v. dose 50 mg, n = 6, mean (SD), read-out: t1/2 (converted)",1.83 h
same,AUC(0-inf),[4],16.3 µg·h/mL
same,AUC(0-t),[4],16.1 µg·h/mL
same,Cmax,[4],9.02 µg/mL
same,Tmax,[4],0.5 h
same,k el,[4],0.000111 s⁻¹
same,clearance,"single i.v. dose 150 mg, n = 6, mean (SD), read-out: CL (converted)",157 mL/min
same,Vd,"single i.v. dose 150 mg, n = 6, mean (SD), read-out: Vss",20.2 L
same,half-life,"single i.v. dose 150 mg, n = 6, mean (SD), read-out: t1/2 (converted)",1.76 h
same,AUC(0-inf),[5],53.9 µg·h/mL
same,AUC(0-t),[5],53.6 µg·h/mL
same,Cmax,[5],31.3 µg/mL
same,Tmax,[5],0.5 h
same,k el,[5],0.000108 s⁻¹
same,clearance,"single i.v. dose 500 mg, n = 6, mean (SD), read-out: CL (converted)",156 mL/min
same,Vd,"single i.v. dose 500 mg, n = 6, mean (SD), read-out: Vss",19.6 L
same,half-life,"single i.v. dose 500 mg, n = 6, mean (SD), read-out: t1/2 (converted)",1.77 h
same,clearance,"single i.v. doses 50 to 2,000 mg, read-out: mean CL, range across doses",117 to 164 mL/min
same,Vd,"single i.v. doses 50 to 2,000 mg, read-out: mean Vss, range across doses",17 to 22.4 L
same,half-life,"single i.v. doses, 1.76 ± 0.17 to 2.36 ± 0.46, read-out: mean apparent terminal elimination half-life (t1/2), range across doses",1.76 to 2.36 h
